The source of these data is patent US20250277066A1, “Substituted Pyridine-2,6-Bis(Phenylenephenolate) Complexes with Enhanced Solubility that are Useful as Catalyst Components for Olefin Polymerization” (ExxonMobil Chemical Patents Inc., priority 2022, published 2025).

The structures appear in SMILES notation.

The nature of this data set: Solubility of complexes in isohexane (Method 1 or Method 2). Particulars: ambient temperature (20° C.-25° C.), mass includes residual solvent. Type of data set: physicochemical. On the procedure: Solubility studies for all other complexes were performed using material as synthesized. […] Solvents used were sparged with nitrogen (30-60 minutes) and dried over 3 Å mole sieves. Unless stated otherwise all measurements were performed at ambient temperature (20° C.-25° C.).
General procedure: Solubility was determined using the following Method 1 or Method 2. For calculations, a value of 0.672 g/mL was used for the density of isohexane.
Method 1: A tared vial was loaded with a small amount of the complex (actual mass recorded, including any residual solvent as noted above, typically 5-30 mg). Then a small stir bar (8 mm) was added. Solvent was then added and the mixture was stirred rapidly (1000 rpm). […] This process was repeated until either a clear solution was obtained (no visible solids or murkiness) or the vial was full. As the mixture approached homogeneity (i.e., few remaining solids observed) the volume of the solvent additions was kept small (<1 mL) to minimize excess beyond the solvent required to achieve homogeneity. The stir bar was then removed and the mass of the mixture was measured. If a clear solution had formed then the solubility of the complex was calculated as a single value, based on the mass of complex and the amount of solvent added to achieve a homogeneous solution. If the mixture remained heterogeneous (visible solids or murky), then the value reported is given as being “less than” the calculated value.
Method 2: A measured amount of complex (actual mass recorded, including any residual solvent as noted above) was added to a tared vial, followed by a stir bar. Dry isohexanes were added in small portions and the resulting mixture was stirred after each portion of isohexanes. If a clear solution had formed then the solubility was reported as a range, the lower bound of solubility calculated using the total solvent added to achieve a homogenous solution and the upper bound of solubility calculated using the total solvent measured prior to achieving a homogenous solution. If the mixture remained heterogeneous (visible solids or murky), the upper bound of solubility was calculated using the total solvent added. Formula used to calculate solubility are listed below. Solvent present in the complex is included in the mass and formula weight of the complexes.

Regarding `CC(C)(C)c1cc2c(c(C34CC5CC(CC(C5)C3)C4)c1)[O][Zr-]1([CH3])([CH3])[O]c3c(cc(C(C)(C)C)cc3C34CC5CC(CC(C5)C3)C4)-c3ccccc3-c3cccc([n+]31)-c1ccccc1-2` [Complex 2], the “Solubility (s) in Isohexane (wt %)” value was found to be 0.081 wt %.

For the compound `Cc1cc2[n+]3c(c1)-c1ccccc1-c1cc(C(C)(C)C)cc(C45CC6CC(CC(C6)C4)C5)c1[O][Zr-]3([CH3])([CH3])[O]c1c(cc(C(C)(C)C)cc1C13CC4CC(CC(C4)C1)C3)-c1ccccc1-2` [Complex 3], the “Solubility (s) in Isohexane” value is recorded as under 3.2 mM and the “Solubility (s) in Isohexane (wt %)” value is reported as under 0.5 wt %.
